Reference: patent US20240308960A1 (Sumitomo Pharma Co., Ltd., priority 2021, published 2024)

The compounds below were run against T1, Human orexin receptor type 2 (Homo sapiens, UniProt O43614) (assay: Test Example 1: agonist activity for orexin receptor type 2 (aequorin luminescence, intracellular calcium mobilization)). Details: compound 10 μm; CHO cells transiently expressing human orexin receptor type 2 and apoaequorin; relative percentage of luminescence for the luminescence (100%) of Orexin A (100 μM).
T1 sequence (O43614 1-444): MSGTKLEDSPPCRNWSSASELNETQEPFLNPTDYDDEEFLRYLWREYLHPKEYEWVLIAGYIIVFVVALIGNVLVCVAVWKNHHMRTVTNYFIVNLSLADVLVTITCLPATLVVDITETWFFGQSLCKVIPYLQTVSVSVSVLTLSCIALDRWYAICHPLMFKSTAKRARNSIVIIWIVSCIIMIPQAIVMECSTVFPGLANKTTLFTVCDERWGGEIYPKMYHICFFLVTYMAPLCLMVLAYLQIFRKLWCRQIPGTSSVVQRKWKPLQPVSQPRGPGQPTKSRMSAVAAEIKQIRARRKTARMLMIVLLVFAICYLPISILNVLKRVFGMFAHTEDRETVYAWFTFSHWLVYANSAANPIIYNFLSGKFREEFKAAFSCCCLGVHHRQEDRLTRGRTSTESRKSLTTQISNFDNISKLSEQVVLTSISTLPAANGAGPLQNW

Compound	Agonist Activity (%)
Cc1ccc(C2CCN(C(=O)Nc3ccccc3N3CCN(C(C)C)CC3)CC2)c(F)c1 [Example 18, 4-(2-fluoro-4-methylphenyl)-N-{2-[4-(propan-2-yl)piperazin-1-yl]phenyl}piperidine-1-carboxamide]	128
CC(C)N1CCN(c2cccc(Cl)c2NC(=O)N2CCc3ccccc3CC2)CC1 [Example 97, N-{2-chloro-6-[4-(propan-2-yl)piperazin-1-yl]phenyl}-1,2,4,5-tetrahydro-3H-3-benzazepine-3-carboxamide]	69
Cc1ccc(C2CCN(C(=O)Nc3c(F)cccc3C3=CCN(C(C)C(F)F)CC3)CC2)cc1 (centres unmarked) [Example 135, N-{2-[1-(1,1-difluoropropan-2-yl)-1,2,3,6-tetrahydropyridin-4-yl]-6-fluorophenyl}-4-(4-methylphenyl)piperidine-1-carboxamide]	103
COCCN1CCN(c2ccccc2NC(=O)N2CCC(c3ccc(C)cc3)CC2)CC1 [Example 125, N-{2-[4-(2-methoxyethyl)piperazin-1-yl]phenyl}-4-(4-methylphenyl)piperidine-1-carboxamide]	141
CC(C)N1CCN(c2cccc(Cl)c2NC(=O)N2CCC(C)(c3nc4ccccc4o3)CC2)CC1 [Example 66, 4-(1,3-benzoxazol-2-yl)-N-{2-chloro-6-[4-(propan-2-yl)piperazin-1-yl]phenyl}-4-methylpiperidine-1-carboxamide]	129
Cc1ccc(C2CCN(C(=O)Nc3ccccc3N3CCN(C(C)C)CC3C)CC2)cc1 (racemic) [Example 30, Rac-4-(4-methylphenyl)-N-{2-[2-methyl-4-(propan-2-yl)piperazin-1-yl]phenyl}piperidine-1-carboxamide]	36
Cc1ccc(C2CCN(C(=O)Nc3cccc(F)c3N3CCN(C(C)C)CC3)CC2)cc1 [Example 11, N-{3-fluoro-2-[4-(propan-2-yl)piperazin-1-yl]phenyl}-4-(4-methylphenyl)piperidine-1-carboxamide]	142
Cc1ccc(C2CCN(C(=O)Nc3c(C(=O)N(C)C)cccc3N3CCN(C(C)C)CC3)CC2)cc1 [Example 33, N-{2-(dimethylcarbamoyl)-6-[4-(propan-2-yl)piperazin-1-yl]phenyl}-4-(4-methylphenyl)piperidine-1-carboxamide]	150
Cc1cc(C2(C)CCN(C(=O)Nc3c(Cl)cccc3N3CCN(C(C)C)CC3)CC2)no1 [Example 84, N-{2-chloro-6-[4-(propan-2-yl)piperazin-1-yl]phenyl}-4-methyl-4-(5-methyl-1,2-oxazol-3-yl)piperidine-1-carboxamide]	110
Cc1nnc(C2(C)CCN(C(=O)Nc3ccccc3N3CCN(C(C)C)CC3)CC2)o1 [Example 165, 4-Methyl-4-(5-methyl-1,3,4-oxadiazol-2-yl)-N-{2-[4-(propan-2-yl)piperazin-1-yl]phenyl}piperidine-1-carboxamide]	96
Cc1ccc(C2CCN(C(=O)Nc3c(OC(C)C)cccc3C3CCN(C(C)C)CC3)CC2)cc1 [Example 129, 4-(4-methylphenyl)-N-{2-[(propan-2-yl)oxy]-6-[1-(propan-2-yl)piperidin-4-yl]phenyl}piperidine-1-carboxamide]	138
CC(C)N1CCN(c2ccccc2NC(=O)N2CCC(C)(c3ccccc3)CC2)CC1 [Example 5, 4-methyl-4-phenyl-N-{2-[4-(propan-2-yl)piperazin-1-yl]phenyl}piperidine-1-carboxamide]	156

More lines, now with the values ahead:

Agonist Activity (%)	Compound
93	CC(C)c1ccc(-c2cccc(F)c2NC(=O)N2CCC(C)(c3noc(C4CC4)n3)CC2)cc1 [Example 65, 4-(5-cyclopropyl-1,2,4-oxadiazol-3-yl)-N-[3-fluoro-4′-(propan-2-yl) [1,1′-biphenyl]-2-yl]-4-methylpiperidine-1-carboxamide]
142	CCC1(c2noc(C3CC3)n2)CCN(C(=O)Nc2c(F)cccc2N2CCN(C(C)C)CC2)CC1 [Example 87, 4-(5-cyclopropyl-1,2,4-oxadiazol-3-yl)-4-ethyl-N-{2-fluoro-6-[4-(propan-2-yl)piperazin-1-yl]phenyl}piperidine-1-carboxamide]
158	CC(C)c1ccc(-c2cccc(F)c2NC(=O)N2CCC(C)(c3cc(C4CC4)on3)CC2)cn1 [Example 59, 4-(5-cyclopropyl-1,2-oxazol-3-yl)-N-{2-fluoro-6-[6-(propan-2-yl)pyridin-3-yl]phenyl}-4-methylpiperidine-1-carboxamide]
157	CC1(c2noc(C3CC3)n2)CCN(C(=O)Nc2c(Cl)cccc2N2CCN(C3CC3)CC2)CC1 [Example 113, N-[2-chloro-6-(4-cyclopropylpiperazin-1-yl)phenyl]-4-(5-cyclopropyl-1,2,4-oxadiazol-3-yl)-4-methylpiperidine-1-carboxamide]
92	COc1cccc(N2CCN(C(C)C)CC2)c1NC(=O)N1CCC(C)(c2noc(C)n2)CC1 [Example 23, N-{2-methoxy-6-[4-(propan-2-yl)piperazin-1-yl]phenyl}-4-methyl-4-(5-methyl-1,2,4-oxadiazol-3-yl)piperidine-1-carboxamide]
148	CC(C)N1CCC(c2cccc(Cl)c2NC(=O)N2CCC(C)(c3noc(C4CC4)n3)CC2)CC1 [Example 145, N-{2-chloro-6-[1-(propan-2-yl)piperidin-4-yl]phenyl}-4-(5-cyclopropyl-1,2,4-oxadiazol-3-yl)-4-methylpiperidine-1-carboxamide]
154	CC(C)N1CCN(c2cccc(Cl)c2NC(=O)N2CCC(C)(c3noc(C4CC4)n3)CC2)CC1 [Example 67, N-{2-chloro-6-[4-(propan-2-yl)piperazin-1-yl]phenyl}-4-(5-cyclopropyl-1,2,4-oxadiazol-3-yl)-4-methylpiperidine-1-carboxamide]
44	CC1(c2noc(C3CC3)n2)CCN(C(=O)Nc2c(F)cccc2C2=CCOCC2)CC1 [Example 56, 4-(5-cyclopropyl-1,2,4-oxadiazol-3-yl)-N-[2-(3,6-dihydro-2H-pyran-4-yl)-6-fluorophenyl]-4-methylpiperidine-1-carboxamide]
158	CC(C)N1CCN(c2cccc(Cl)c2NC(=O)N2CCC(C)(c3noc([C@H]4C[C@H]4C)n3)CC2)CC1 [Example 117, N-{2-chloro-6-[4-(propan-2-yl)piperazin-1-yl]phenyl}-4-methyl-4-{5-[(1S,2R)-2-methylcyclopropyl]-1,2,4-oxadiazol-3-yl}piperidine-1-carboxamide]
127	CC(C)N1CCN(c2cccc(F)c2NC(=O)N2CCC(C)(c3noc(C(F)(F)F)n3)CC2)CC1 [Example 24, N-{2-fluoro-6-[4-(propan-2-yl)piperazin-1-yl]phenyl}-4-methyl-4-[5-(trifluoromethyl)-1,2,4-oxadiazol-3-yl]piperidine-1-carboxamide]
161	CC(C)N1CCN(c2cccc(Cl)c2NC(=O)N2CCC(C)(c3noc(C4(F)CC4)n3)CC2)CC1 [Example 109, N-{2-chloro-6-[4-(propan-2-yl)piperazin-1-yl]phenyl}-4-[5-(1-fluorocyclopropyl)-1,2,4-oxadiazol-3-yl]-4-methylpiperidine-1-carboxamide]
185	CC(C)N1CCN(c2cccc(Cl)c2NC(=O)N2CCC(C)(c3noc(C4CC4(C)C)n3)CC2)CC1 (centres unmarked) [Example 106, N-{2-chloro-6-[4-(propan-2-yl)piperazin-1-yl]phenyl}-4-[5-(2,2-dimethylcyclopropyl)-1,2,4-oxadiazol-3-yl]-4-methylpiperidine-1-carboxamide]
171	CC(C)N1CCN(c2cccc(F)c2NC(=S)N2CCC(C)(c3noc(C4CC4)n3)CC2)CC1 [Example 57, 4-(5-cyclopropyl-1,2,4-oxadiazol-3-yl)-N-{2-fluoro-6-[4-(propan-2-yl)piperazin-1-yl]phenyl}-4-methylpiperidine-1-carbothioamide]
157	COC1(c2nc(C3(C)CCN(C(=O)Nc4c(Cl)cccc4N4CCN(C(C)C)CC4)CC3)no2)CC1 [Example 108, N-{2-chloro-6-[4-(propan-2-yl)piperazin-1-yl]phenyl}-4-[5-(1-methoxycyclopropyl)-1,2,4-oxadiazol-3-yl]-4-methylpiperidine-1-carboxamide]
195	CC(C)N1CCN(c2cccc(F)c2NC(=O)N2CCC(C)(C3CCCC3)CC2)CC1 [Example 91, 4-cyclopentyl-N-{2-fluoro-6-[4-(propan-2-yl)piperazin-1-yl]phenyl}-4-methylpiperidine-1-carboxamide]
75	Cc1ccc(C2CCN(C(=O)Nc3c(F)cccc3C3=CCN(C)C3)CC2)cc1 [Example 140, N-[2-fluoro-6-(1-methyl-2,5-dihydro-1H-pyrrol-3-yl)phenyl]-4-(4-methylphenyl)piperidine-1-carboxamide]
178	CC(C)N1CCN(c2cccc(Cl)c2NC(=O)N2CCC(C)(c3noc(C4CC4)c3Cl)CC2)CC1 [Example 103, 4-(4-chloro-5-cyclopropyl-1,2-oxazol-3-yl)-N-{2-chloro-6-[4-(propan-2-yl)piperazin-1-yl]phenyl}-4-methylpiperidine-1-carboxamide]
